The record followed here is patent US9884063B2, “Amido-substituted azole compounds” (Bayer Pharma Aktiengesellschaft, priority 2014, dated 2018).

For this experiment, the target named is T1, TNKS2 (Homo sapiens, UniProt Q9H2K2).
T1 sequence (Q9H2K2 1-1166): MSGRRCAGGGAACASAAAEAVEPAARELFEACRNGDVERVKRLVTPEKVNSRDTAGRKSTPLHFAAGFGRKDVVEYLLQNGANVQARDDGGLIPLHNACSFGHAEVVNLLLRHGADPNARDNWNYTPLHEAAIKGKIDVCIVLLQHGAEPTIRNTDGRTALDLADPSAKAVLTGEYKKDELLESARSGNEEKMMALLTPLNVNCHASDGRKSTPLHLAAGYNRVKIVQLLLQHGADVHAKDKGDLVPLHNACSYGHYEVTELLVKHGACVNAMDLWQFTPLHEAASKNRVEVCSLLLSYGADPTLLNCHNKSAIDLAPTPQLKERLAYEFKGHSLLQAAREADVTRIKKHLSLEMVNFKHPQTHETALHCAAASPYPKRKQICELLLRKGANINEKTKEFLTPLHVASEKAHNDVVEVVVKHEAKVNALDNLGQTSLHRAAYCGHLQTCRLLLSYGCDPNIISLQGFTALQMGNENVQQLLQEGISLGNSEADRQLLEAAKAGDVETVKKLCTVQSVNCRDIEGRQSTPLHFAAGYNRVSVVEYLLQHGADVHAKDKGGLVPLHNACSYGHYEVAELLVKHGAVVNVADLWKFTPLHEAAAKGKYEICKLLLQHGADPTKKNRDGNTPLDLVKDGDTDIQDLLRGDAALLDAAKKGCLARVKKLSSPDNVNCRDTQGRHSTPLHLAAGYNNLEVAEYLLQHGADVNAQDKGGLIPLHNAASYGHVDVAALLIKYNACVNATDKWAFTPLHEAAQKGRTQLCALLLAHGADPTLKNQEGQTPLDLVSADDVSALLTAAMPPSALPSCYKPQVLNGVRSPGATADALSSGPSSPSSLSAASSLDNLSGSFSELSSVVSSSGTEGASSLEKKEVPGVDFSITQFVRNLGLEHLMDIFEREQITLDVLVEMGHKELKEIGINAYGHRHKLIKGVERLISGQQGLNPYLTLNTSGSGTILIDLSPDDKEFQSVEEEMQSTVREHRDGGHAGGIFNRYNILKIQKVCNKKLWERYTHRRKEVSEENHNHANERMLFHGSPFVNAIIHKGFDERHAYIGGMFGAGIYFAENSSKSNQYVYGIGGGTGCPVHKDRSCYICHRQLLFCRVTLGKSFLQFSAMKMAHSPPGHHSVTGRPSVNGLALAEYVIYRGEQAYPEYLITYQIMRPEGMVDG
Put plainly: Modified TNKS2 Assay 3 (BPS kit #80578, biotin-NAD+, 96 well). In kind it is biochemical. As to conditions: human TNKS2, BPS kit #80578, 96 well. The method in brief: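 Commercial kit assay measuring TNKS2-catalysed incorporation of biotin-labelled NAD+ into a protein substrate, detected by streptavidin-HRP chemiluminescence. Run per manufacturer's protocol; IC50 is the concentration halving the normalised signal.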

With `C[C@@H]1CCCCN1CCNC(=O)c1[nH]cnc1C(=O)Nc1ccc(NC(=O)c2ccc(F)cc2Cl)cc1` [Example 267, N^4-{4-[(2-chloro-4-fluorobenzoyl)amino]phenyl}-N^5-{2-[(2R)-2-methylpiperidin-1-yl]ethyl}-1H-imidazole-4,5-dicarboxamide], the IC50 (in general, the concentration that gives 50% inhibition) was below 0.5 nM.
Next, `C[C@@H]1CCCN(CCNC(=O)c2[nH]cnc2C(=O)Nc2ccc(NC(=O)c3ccc(F)cc3Cl)cc2)C1` [Example 278, N^4-{4-[(2-chloro-4-fluorobenzoyl)amino]phenyl}-N^5-{2-[(3R)-3-methylpiperidin-1-yl]ethyl}-1H-imidazole-4,5-dicarboxamide]: 1 nM; `O=C(Nc1ccc(NC(=O)c2[nH]cnc2C(=O)NCCN2CCCCC2)cc1)c1ccc(F)cc1Cl` [Example 32, N^4-{4-[(2-chloro-4-fluorobenzoyl)amino]phenyl}-N^5-[2-(piperidin-1-yl)ethyl]-1H-imidazole-4,5-dicarboxamide]: 1 nM.
Next, `CNC(=O)c1nc[nH]c1C(=O)Nc1ccc(NC(=O)c2ccc(F)cc2Br)cc1` [Example 56, N^5-{4-[(2-bromo-4-fluorobenzoyl)amino]phenyl}-N^4-methyl-1H-imidazole-4,5-dicarboxamide]: 60 nM; `CNC(=O)c1nc[nH]c1C(=O)Nc1ccc(NC(=O)c2ccc(S(C)(=O)=O)cc2Cl)cc1` [Example 55, N^5-(4-{[2-chloro-4-(methylsulfonyl)benzoyl]amino}phenyl)-N^4-methyl-1H-imidazole-4,5-dicarboxamide]: 10 nM; `Cc1nc(C(=O)Nc2ccc(NC(=O)c3ccc(F)cc3Cl)cc2)c(C(=O)NCCN2CCCCC2)[nH]1` [Example 67, N^4-{4-[(2-chloro-4-fluorobenzoyl)amino]phenyl}-2-methyl-N^5-[2-(piperidin-1-yl)ethyl]-1H-imidazole-4,5-dicarboxamide]: 5 nM.
As to `CN(C)CCNC(=O)c1nc[nH]c1C(=O)Nc1ccc(NC(=O)c2ccc(F)cc2Cl)cc1` [Example 22, N^4-{4-[(2-chloro-4-fluorobenzoyl)amino]phenyl}-N^5-[2-(dimethylamino)ethyl]-1H-imidazole-4,5-dicarboxamide], the IC50 is 10 nM.
In the case of `O=C(Nc1ccc(NC(=O)c2[nH]cnc2C(=O)N2CC3(COC3)C2)cc1)c1cc(F)c(F)cc1Cl` [Example 52, N-{4-[(2-chloro-4,5-difluorobenzoyl)amino]phenyl}-4-(2-oxa-6-azaspiro[3.3]hept-6-ylcarbonyl)-1H-imidazole-5-carboxamide], 250 nM corresponded to half-maximal inhibition (IC50).
The same measure for `O=C(Nc1ccc(NC(=O)c2[nH]cnc2C(=O)NC2CC2)cc1)c1cc(F)c(F)cc1Cl` [Example 51, N^5-{4-[(2-chloro-4,5-difluorobenzoyl)amino]phenyl}-N^4-cyclopropyl-1H-imidazole-4,5-dicarboxamide]: 10 nM; for `CNC(=O)c1nc[nH]c1C(=O)Nc1ccc(NC(=O)c2ccc(F)cc2I)cc1` [Example 61, N^5-{4-[(4-fluoro-2-iodobenzoyl)amino]phenyl}-N^4-methyl-1H-imidazole-4,5-dicarboxamide]: 3 nM; for `CC(CN1CCOCC1)NC(=O)c1[nH]cnc1C(=O)Nc1ccc(NC(=O)c2ccc(F)cc2Cl)cc1` (single isomer, unassigned; enantiomer 2) [Example 270, N^4-{4-[(2-chloro-4-fluorobenzoyl)amino]phenyl}-N^5-[1-(morpholin-4-yl)propan-2-yl]-1H-imidazole-4,5-dicarboxamide (enantiomer 2)]: 10 nM.
